Test results from patent US20140271822A1, “MODIFIED DOCETAXEL LIPOSOME FORMULATIONS” (Mallinckrodt LLC, priority 2013, published 2014).
“Also recorded” adds a separate entry of the source.

Legend:
[1] = Tissue distribution in mice with PC3 xenografts; settings: docetaxel in tissue
Procedure: (§1) The plasma pharmacokinetics and distribution were studied in male athymic nude mice each implanted subcutaneously with PC3 cells (human prostate cancer). Once tumors reached a volume of 100-300 mm^3, animals were randomized into 5 groups.
(§2) Three animals were sacrificed at 5 minutes and 1, 4, 24, 48, 72, 120 and 168 hours post injection. Blood samples were taken for pharmacokinetic analysis at each time. Pharmacokinetic parameters of TD-1 and docetaxel were calculated using the Phoenix WinNonLin software by non-compartment analysis modeling.
In addition to the plasma levels and pharmacokinetic calculations described above, tissue distribution was also evaluated. Tissues harvested from each animal described in Table 5 and frozen before analysis included: tumor, liver, spleen, and kidney.

[2] = Plasma pharmacokinetics in nude mice bearing PC3 xenografts; settings: single iv; for plasma docetaxel concentrations falling below the levels of detection after: free drugs
Procedure: as §1, §2

[3] = system: human A253 (Head & Neck) tumor xenografts; assay: Antitumor activity, A253 head & neck xenograft; assay type: in vivo, athymic nude mice; settings: for TGI (%): day 31 post treatment
From the text: The studies were of broadly similar design.

[4] = system: human A549 NSCLC tumor xenografts; assay: Antitumor activity, A549 NSCLC xenograft, single dose; assay type: in vivo, athymic nude mice
Procedure: (§3) The studies were of broadly similar design. Tumor cell lines were implanted subcutaneously into the flank of nude (immunodeficient) mice and allowed to grow to a fixed size. […] In each case, where possible, doses were selected as providing equivalent levels of toxicity/tolerance. […] Tumor volume was analyzed to determine tumor growth delay (TGD) and partial regression. Mice were removed from the study if they lost 20% of their initial bodyweight or became moribund or if their tumor volume exceeded 2500 mm^3 or the tumor ulcerated. If less than half of the initial cohort of mice remained, that group was no longer graphed or included in further tumor analysis. However, any remaining animals were followed until completion of the in-life observation period and included in a survival analysis.

[5] = system: human PC3 (prostate) tumor xenografts; assay: Antitumor activity, PC3 prostate xenograft; assay type: in vivo, athymic nude mice; settings: docetaxel 18 and 27 mg/kg
Procedure: as §3

[6] = system: MDA-MB-435/PTK7 (human breast) tumor xenografts; assay: Antitumor activity, MDA-MB-435/PTK7 breast xenograft; assay type: in vivo, athymic nude mice
Procedure: as §3

[7] = system: HT1080/PTK7 human fibrosarcoma tumor xenografts; assay: Antitumor activity, HT1080/PTK7 fibrosarcoma xenograft; assay type: in vivo, athymic nude mice
Procedure: as §3

[8] = system: A431 human epidermoid tumor xenografts; assay: Antitumor activity, A431 epidermoid xenograft; assay type: in vivo, athymic nude mice
Procedure: as §3

[9] = mouse, in vivo
Procedure: (§4) The plasma pharmacokinetics and distribution were studied in female athymic nude mice each implanted subcutaneously with A549 cells (human non-small cell lung cancer). Once tumors reached a volume of 100-300 mm^3, animals were randomized into 4 groups.
(§5) Three animals were sacrificed at 1, 4, 24, 72 (3 days), 168 (7 days), 216 (9 days), 336 (14 days), 432 (18 days) and 504 hours (21 days) post injection. Blood samples were taken for pharmacokinetic analysis at each time point. Pharmacokinetic parameters of TD-1 and docetaxel were calculated using the Phoenix WinNonLin software by non-compartment analysis modeling.

in vivo [10] = settings: male, athymic nude, mouse, plasma, iv, 19 mg/kg
Procedure: as §1, §2

in vivo [11] = settings: female, athymic nude, mouse, iv
Procedure: as §4, §5

[12] = Tissue distribution in mice with A549 xenografts; settings: for Kidney AUC / Liver AUC / Spleen AUC / Tumor AUC: docetaxel in tissue
Procedure: as §4
Three animals were sacrificed at 1, 4, 24, 72 (3 days), 168 (7 days), 216 (9 days), 336 (14 days), 432 (18 days) and 504 hours (21 days) post injection. Blood samples were taken for pharmacokinetic analysis at each time point.

[13] = system: A549 human NSCLC tumor xenografts; assay: Antitumor activity, A549 NSCLC xenograft, two doses 21 days apart; settings: for Median Survival / Partial Tumor Regression (%) / TGD / TGD (%): two doses 21 days apart
Procedure: The studies were of broadly similar design. Tumor cell lines were implanted subcutaneously into the flank of nude (immunodeficient) mice and allowed to grow to a fixed size. […] In each case, where possible, doses were selected as providing equivalent levels of toxicity/tolerance. The highest doses of TD-1 were usually limited by the volume that could be administered. Tumor volume was analyzed to determine tumor growth delay (TGD) and partial regression. Mice were removed from the study if they lost 20% of their initial bodyweight or became moribund or if their tumor volume exceeded 2500 mm^3 or the tumor ulcerated. If less than half of the initial cohort of mice remained, that group was no longer graphed or included in further tumor analysis. However, any remaining animals were followed until completion of the in-life observation period and included in a survival analysis.

[14] = TD-1 in plasma, dose 11 mg/kg (docetaxel equivalent)
[15] = docetaxel in plasma, dose 11 mg/kg (docetaxel equivalent)
[16] = 30 mg/kg (docetaxel equivalent) single iv
[17] = dose 19 mg/kg (docetaxel equivalent)
[18] = docetaxel in plasma, dose 19 mg/kg (docetaxel equivalent)

## CC(=O)O[C@@]12CO[C@@H]1C[C@H](O)[C@@]1(C)C(=O)[C@H](O)C3=C(C)[C@@H](OC(=O)[C@H](OC(=O)CCCN4CCN(C)CC4)[C@@H](NC(=O)OC(C)(C)C)c4ccccc4)C[C@@](O)([C@@H](OC(=O)c4ccccc4)[C@H]21)C3(C)C [TD-1, 2′O-4-(4-methylpiperazin-1-yl)-butanoyl-docetaxel]
[1]; dose 11 mg/kg (docetaxel equivalent)
  Tumor AUC: 314 µg·h/g
[2]; [14]
  AUC: 5700 ng·h/mL
  AUC/Dose: 0.4
  CL: 39.77 mL/min/kg
  Cmax: 5000 ng/mL
  Cmax/Dose: 0.4
  Vz: 26.01 L/kg
  t1/2: 7.6 h
[2]; [15]
  AUC: 4100 ng·h/mL
  AUC/Dose: 0.4
  CL: 43.18 mL/min/kg
  Cmax: 1400 ng/mL
  Cmax/Dose: 0.1
  Vz: 40.905 L/kg
  t1/2: 11 h
[2]
  plasma docetaxel concentrations falling below the levels of detection after: 48 h

## CC(=O)O[C@@]12CO[C@@H]1C[C@H](O)[C@@]1(C)C(=O)[C@H](O)C3=C(C)[C@@H](OC(=O)[C@H](O)[C@@H](NC(=O)OC(C)(C)C)c4ccccc4)C[C@@](O)([C@@H](OC(=O)c4ccccc4)[C@H]21)C3(C)C [Docetaxel, docetaxel]
[3]; 10 mg/kg single iv
  Median Survival: 64 days
  TGD: 0 days
  TGD (%): 0%
  TGI (%): 0%
[3]; 20 mg/kg single iv
  Median Survival: 62 days
  TGD: 0 days
  TGD (%): 0%
  TGI (%): 0%
[3]; [16]
  Median Survival: 73 days
  TGD: 5 days
  TGD (%): 9%
  TGI (%): 12%
[3]; docetaxel 10, 20, 30 mg/kg
  effect on tumor volumes and survival: failed to reduce A253 tumor volumes significantly or extend survival
[4]; 10 mg/kg single iv
  Median Survival: 96 days
  Partial Tumor Regression (%): 0%
  TGI (%): 0%
[4]; 20 mg/kg single iv
  Partial Tumor Regression (%): 0%
  TGI (%): 4%
[4]; [16]
  Partial Tumor Regression (%): 10%
  TGI (%): 38%
[4]; docetaxel 10, 20, 30 mg/kg
  effect on tumor volumes and survival: failed to reduce A549 tumor volumes significantly or extend survival
[5]
  tumor growth: inhibited tumor growth
[5]; p<0.05
  survival compared to saline: increased survival significantly more than saline
[6]; 9 mg/kg single iv
  Median Survival: 15 days
  Partial Tumor Regression (%): 0%
  TGD: 1
  TGD (%): 9%
[6]; 18 mg/kg single iv
  Median Survival: 28 days
  Partial Tumor Regression (%): 13%
  TGD: 10
  TGD (%): 91%
  TGI (%): 26%
[6]; 27 mg/kg single iv
  Median Survival: 35 days
  Partial Tumor Regression (%): 38%
  TGD: 18
  TGD (%): 164%
  TGI (%): 42%
[6]; docetaxel 18 and 27 mg/kg
  tumor growth: inhibited tumor growth
[7]; 9 mg/kg single iv
  Median Survival: 11.5 days
  Partial Tumor Regression (%): 0%
  TGI (%): 52%
[7]; 18 mg/kg single iv
  Median Survival: 23 days
  Partial Tumor Regression (%): 10%
  TGD: 7
  TGD (%): 70%
  TGI (%): 31%
[7]; 27 mg/kg single iv
  Median Survival: 30 days
  Partial Tumor Regression (%): 70%
  TGD: 16
  TGD (%): 160%
  TGI (%): 89%
[7]; docetaxel
  survival: did not significantly increase survival
[7]; docetaxel 27 mg/kg, day 14
  tumor growth compared to saline: inhibited tumor growth; also recorded: significantly smaller tumors than saline
[8]; 20 mg/kg single iv
  Median Survival: 17 days
  Partial Tumor Regression (%): 63%
  TGD: 13
  TGD (%): 1408%
  TGI (%): 123%
[8]; 30 mg/kg single iv
  Median Survival: 9 days
  Partial Tumor Regression (%): 50%
  TGI (%): 120%
[8]; docetaxel 20 and 30 mg/kg, day 7
  tumor growth compared to saline: inhibited tumor growth; also recorded: significantly smaller tumors than saline
[9]
  plasma docetaxel detectable for: only four hours
In vivo [10]
  AUC: 13000 ng·h/mL
  Cmax: 13000 ng/mL
  Vd: 16.1 L/kg
  clearance: 25 mL/min/kg
  half-life: 7.4 h
In vivo [11]; 30 mg/kg
  AUC(0-inf): 8800 ng·h/mL
  Cmax: 2700 ng/mL
  Vd: 16.1 L/kg
In vivo [11]; 50 mg/kg
  AUC(0-inf): 27000 ng·h/mL
  Cmax: 8600 ng/mL
  Vd: 37.2 L/kg
[1]; [17]
  Kidney AUC: 73 µg·h/g
  Liver AUC: 50 µg·h/g
  Spleen AUC: 94 µg·h/g
  Tumor AUC: 896 µg·h/g
[12]; docetaxel 50 mg/kg
  tumor retained measurable levels of docetaxel through: 216 h
[12]; docetaxel 50 mg/kg, most of the tissues except tumor
  tissue concentrations of docetaxel fell below the limits of quantitation after: 24 h
[12]; dose 30 mg/kg
  Kidney AUC: 28 µg·h/g
  Liver AUC: 10 µg·h/g
  Spleen AUC: 77 µg·h/g
  Tumor AUC: 276 µg·h/g
[12]; dose 50 mg/kg
  Kidney AUC: 179 µg·h/g
  Liver AUC: 37 µg·h/g
  Spleen AUC: 162 µg·h/g
  Tumor AUC: 442 µg·h/g
[12]; free docetaxel, after injection
  docetaxel in liver, spleen and kidney fell below the levels of detection within: ≤ 24 h
[12]; intravenous injection of docetaxel
  tumor docetaxel falling below the levels of quantitation (1.0 μg/g) after: nine days
[2]; [18]
  AUC/Dose: 0.7
  Cmax/Dose: 0.7
[2]
  plasma docetaxel concentrations falling below the levels of detection after: 48 h
[13]; 18 mg/kg
  Median Survival: 56 days
  Partial Tumor Regression (%): 0%
  TGD: 19
  TGD (%): 66%
[13]; 27 mg/kg
  Median Survival: 100 days
  Partial Tumor Regression (%): 10%
  TGD: 41
  TGD (%): 141%
[13]; all dose levels, p<0.05
  survival compared to saline: increased survival significantly compared to saline
[13]; docetaxel 18 and 27 mg/kg, days 0 and 21, day 37
  tumor growth compared to saline: inhibited tumor growth; also recorded: significantly smaller tumors than saline
